Consider 18 compounds from patent publication US20260297085A1, “1 H-PYRROLO[2,3-B]PYRIDIN-4-YL]-2-OXOPYRROLIDINE-3-CARBONITRILE DERIVATIVES AS TYROSINE KINASE 2 (TYK2) INHIBITORS FOR THE TREATMENT OF INFLAMMATORY DISEASES” (BIOGEN MA INC., priority 2023, published 2026).

Counter-ions that a name gives are not always drawn.

Assay [1] has as its target T1, human JAK2 kinase domain (JH1) (Homo sapiens, UniProt O60674).
T1 construct: recombinantly generated catalytic kinase (also known as JH1) domain of human JAK1, JAK2, JAK3 and TYK2
Kind of assay: JH1 biochemical assay for JAK2 (ADP-Glo kinase assay, recombinant JH1 catalytic domain, JAK3-974 peptide, 15 μM ATP). The following applies: JAK2 JH1, ADP-Glo. Summed up: (§1)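 Luminescent ADP read-out after residual ATP depletion, 100 min reaction. Kinase domain concentrations were 4 nM (JAK1), 0.2 nM (JAK2), 0.3 nM (JAK3) and 2 nM (TYK2), each with 50 μM peptide. IC50 values came from 4-parameter logistic fits over 11 points, 3-fold steps, top 10 μM or 1 μM.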
On the technique in general: ADP-Glo first removes unused ATP, then detects ADP through luciferase.

Assay [2] concerns the target T2, human JAK1 kinase domain (JH1) (Homo sapiens, UniProt P23458).
T2 construct: recombinantly generated catalytic kinase (also known as JH1) domain of human JAK1, JAK2, JAK3 and TYK2
Kind of assay: JH1 biochemical assay for JAK1 (ADP-Glo kinase assay, recombinant JH1 catalytic domain, JAK3-342 peptide, 35 μM ATP). The following applies: JAK1 JH1, ADP-Glo. In outline:
as §1

Assay [3] deals with Tyk2 kinase activity on STAT4 in NK92 cells (Homo sapiens, UniProt P29597). Kind of assay: pSTAT4 cell assay (MSD; NK92 cells, 30 ng/mL IL2 stimulation). In kind it is cell-based. The following applies: 30 ng/mL IL2, 15 minutes. As for the experimental part: The inhibitory potency of compounds of the disclosure against the Tyk2 kinase activity on STAT4 was evaluated using an MSD-platform plate-based assay format. NK92 cells natively expressing STAT4 and Tyk2 were serum-starved to reduce background phosphorylation levels, then cells were treated compounds for 1 hr with a 10-point four-fold dilution series starting at 10 μM. Cells were then stimulated with 30 ng/mL IL2 for 15 minutes. Cells were lysed and […] levels were quantitated using an MSD plate-based assay with anti-STAT4 antibodies. The data were normalized and the percent activity versus log concentration of compound were fitted with a 4-parameter logistic model to generate to generate IC50 curves.

Assay [4] deals with T3, human TYK2 kinase domain (JH1) (Homo sapiens, UniProt P29597).
T3 construct: recombinantly generated catalytic kinase (also known as JH1) domain of human JAK1, JAK2, JAK3 and TYK2
T3 sequence (P29597 897-1176 limits assumed): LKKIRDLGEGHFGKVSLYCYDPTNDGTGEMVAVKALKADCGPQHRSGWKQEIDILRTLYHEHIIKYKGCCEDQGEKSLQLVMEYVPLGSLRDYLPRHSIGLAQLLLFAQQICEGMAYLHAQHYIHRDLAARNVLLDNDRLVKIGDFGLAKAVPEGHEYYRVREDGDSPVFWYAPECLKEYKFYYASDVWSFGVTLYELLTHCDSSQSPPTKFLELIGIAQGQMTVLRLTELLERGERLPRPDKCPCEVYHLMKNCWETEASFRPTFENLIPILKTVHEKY
Kind of assay: JH1 biochemical assay for TYK2 (ADP-Glo kinase assay, recombinant JH1 catalytic domain, JAK3-974 peptide, 10 μM ATP). The following applies: TYK2 JH1, ADP-Glo. In outline: as §1

Assay [5] deals with T4, human JAK3 kinase domain (JH1) (Homo sapiens, UniProt P52333).
T4 construct: recombinantly generated catalytic kinase (also known as JH1) domain of human JAK1, JAK2, JAK3 and TYK2
The assay is described as follows: JH1 biochemical assay for JAK3 (ADP-Glo kinase assay, recombinant JH1 catalytic domain, JAK3-974 peptide, 4 μM ATP). To be noted: JAK3 JH1, ADP-Glo. Summed up:
as §1

T1 sequence (O60674 849-1124 limits assumed): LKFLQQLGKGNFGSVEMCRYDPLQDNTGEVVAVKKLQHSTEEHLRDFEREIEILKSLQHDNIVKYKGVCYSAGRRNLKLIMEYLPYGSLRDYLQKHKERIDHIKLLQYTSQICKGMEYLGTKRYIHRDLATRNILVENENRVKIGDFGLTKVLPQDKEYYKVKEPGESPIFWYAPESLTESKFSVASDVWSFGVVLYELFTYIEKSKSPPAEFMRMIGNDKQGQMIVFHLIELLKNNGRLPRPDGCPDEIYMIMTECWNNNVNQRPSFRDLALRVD
T4 sequence (P52333 822-1111 limits assumed): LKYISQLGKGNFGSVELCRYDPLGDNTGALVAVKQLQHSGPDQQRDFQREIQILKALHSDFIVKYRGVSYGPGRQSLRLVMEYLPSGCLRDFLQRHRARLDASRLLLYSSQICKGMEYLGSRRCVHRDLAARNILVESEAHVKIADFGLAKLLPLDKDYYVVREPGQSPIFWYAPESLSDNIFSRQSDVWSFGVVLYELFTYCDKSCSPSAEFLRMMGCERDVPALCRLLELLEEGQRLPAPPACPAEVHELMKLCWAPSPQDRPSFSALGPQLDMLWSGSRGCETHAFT
T2 sequence (P23458 875-1153 limits assumed): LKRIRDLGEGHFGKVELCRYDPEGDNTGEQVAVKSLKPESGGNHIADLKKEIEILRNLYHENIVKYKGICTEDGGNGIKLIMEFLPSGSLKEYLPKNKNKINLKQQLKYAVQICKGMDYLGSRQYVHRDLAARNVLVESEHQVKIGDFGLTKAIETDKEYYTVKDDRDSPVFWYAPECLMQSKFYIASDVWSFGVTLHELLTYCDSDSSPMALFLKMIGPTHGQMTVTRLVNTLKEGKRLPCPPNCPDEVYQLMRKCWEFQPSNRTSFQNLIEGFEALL
Tyk2 kinase activity on STAT4 in NK92 cells, sequence (P29597 whole entry): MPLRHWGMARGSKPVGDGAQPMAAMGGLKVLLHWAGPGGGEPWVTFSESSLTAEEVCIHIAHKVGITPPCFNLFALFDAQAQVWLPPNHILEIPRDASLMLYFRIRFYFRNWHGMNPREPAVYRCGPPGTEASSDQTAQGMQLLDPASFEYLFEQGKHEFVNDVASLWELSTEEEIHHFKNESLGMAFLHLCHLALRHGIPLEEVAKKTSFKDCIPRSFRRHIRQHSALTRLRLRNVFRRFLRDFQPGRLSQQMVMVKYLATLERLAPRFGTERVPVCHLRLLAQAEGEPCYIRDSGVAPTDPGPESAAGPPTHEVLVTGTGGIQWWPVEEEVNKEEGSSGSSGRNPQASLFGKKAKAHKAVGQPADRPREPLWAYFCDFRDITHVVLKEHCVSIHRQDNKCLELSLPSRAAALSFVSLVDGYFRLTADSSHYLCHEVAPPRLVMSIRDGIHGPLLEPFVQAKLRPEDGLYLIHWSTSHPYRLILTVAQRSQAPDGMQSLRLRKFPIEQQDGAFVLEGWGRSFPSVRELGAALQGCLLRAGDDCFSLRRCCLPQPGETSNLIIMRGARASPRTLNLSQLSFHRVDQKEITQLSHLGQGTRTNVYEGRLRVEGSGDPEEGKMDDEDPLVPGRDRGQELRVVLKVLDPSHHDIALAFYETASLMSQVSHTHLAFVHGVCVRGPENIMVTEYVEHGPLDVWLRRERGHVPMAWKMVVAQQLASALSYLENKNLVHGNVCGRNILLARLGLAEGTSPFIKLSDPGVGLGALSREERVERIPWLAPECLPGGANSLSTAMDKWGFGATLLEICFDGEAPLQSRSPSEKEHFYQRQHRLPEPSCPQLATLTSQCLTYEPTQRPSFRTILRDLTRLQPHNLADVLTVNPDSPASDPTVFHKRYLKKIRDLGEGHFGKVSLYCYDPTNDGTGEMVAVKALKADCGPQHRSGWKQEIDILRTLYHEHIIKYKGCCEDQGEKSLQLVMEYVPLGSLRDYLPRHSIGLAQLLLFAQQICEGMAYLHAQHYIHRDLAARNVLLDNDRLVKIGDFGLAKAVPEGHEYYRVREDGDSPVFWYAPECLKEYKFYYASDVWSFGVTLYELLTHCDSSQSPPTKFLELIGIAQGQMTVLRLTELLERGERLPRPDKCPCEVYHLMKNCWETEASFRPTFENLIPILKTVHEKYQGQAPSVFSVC

In the case of `C[C@@H]1OC[C@@H]1n1cc(-c2cn3ncc(F)c3c(N3C[C@@H](C)[C@@](C#N)(C4CC4)C3=O)n2)cn1` (relative stereo) [Example 305, (3R,4S)-3-cyclopropyl-1-(3-fluoro-6-(1-((2S,3S)-2-methyloxetan-3-yl)-1H-pyrazol-4-yl)pyrazolo[1,5-a]pyrazin-4-yl)-4-methyl-2-oxopyrrolidine-3-carbonitrile and (3R,4S)-3-cyclopropyl-1-(3-fluoro-6-(1-((2R,3R)-2-methyloxetan-3-yl)-1H-pyrazol-4-yl)pyrazolo[1,5-a]pyrazin-4-yl)-4-methyl-2-oxopyrrolidine-3-carbonitrile], the IC50 is less than 100 nM in assay [1]; less than 100 nM in assay [2]; greater than 100 nM in assay [3]; less than 5 nM in assay [4]; less than 100 nM in assay [5].
Regarding `C[C@@H]1CN(c2nc(-c3cncnc3)cn3nccc23)C(=O)[C@]1(C#N)C1CC1` [Example 265, (3R,4S)-3-cyclopropyl-4-methyl-2-oxo-1-(6-(pyrimidin-5-yl)pyrazolo[1,5-a]pyrazin-4-yl)pyrrolidine-3-carbonitrile trifluoroacetate], the IC50 in assay [1] lay within 1000 to 5000 nM; in assay [2] it was 1000 to 5000 nM; in assay [4] it was 50 to 100 nM; in assay [5] it was 1000 to 5000 nM.
Regarding `C[C@@H]1CN(c2nc(-c3cnn(C)c3)cc3nccn23)C(=O)[C@]1(C#N)C1CC1` [Example 269, (3R,4S)-3-cyclopropyl-4-methyl-1-(7-(1-methyl-1H-pyrazol-4-yl)imidazo[1,2-c]pyrimidin-5-yl)-2-oxopyrrolidine-3-carbonitrile], the IC50 in assay [1] is 5000 to 10000 nM; in assay [2], 1000 to 5000 nM; in assay [4], greater than 100 nM; in assay [5], 1000 to 5000 nM.
With `C[C@@H]1CN(c2cc(-c3cnn(C(F)F)c3)cn3ncc(F)c23)C(=O)[C@]1(C#N)C1CC1` [Example 270, (3R,4S)-3-cyclopropyl-1-(6-(1-(difluoromethyl)-1H-pyrazol-4-yl)-3-fluoropyrazolo[1,5-a]pyridin-4-yl)-4-methyl-2-oxopyrrolidine-3-carbonitrile], the IC50 in assay [1] is 1000 to 5000 nM; in assay [2] it was 1000 to 5000 nM; in assay [4] it was 20 to 50 nM; in assay [5], 1000 to 5000 nM.
For the compound `C[C@@H]1CN(c2cccn3nc(-c4cnn(C)c4)cc23)C(=O)[C@]1(C#N)C1CC1` [Example 272, (3R,4S)-3-cyclopropyl-4-methyl-1-(2-(1-methyl-1H-pyrazol-4-yl)pyrazolo[1,5-a]pyridin-4-yl)-2-oxopyrrolidine-3-carbonitrile], the IC50 is greater than 10000 nM in assay [1], greater than 10000 nM in assay [2], greater than 100 nM in assay [4] and greater than 10000 nM in assay [5].
Consider `C[C@@H]1CN(c2ccnc3cc(-c4cnn(C)c4)nn23)C(=O)[C@]1(C#N)C1CC1` [Example 273, (3R,4S)-3-cyclopropyl-4-methyl-1-(2-(1-methyl-1H-pyrazol-4-yl)pyrazolo[1,5-a]pyrimidin-7-yl)-2-oxopyrrolidine-3-carbonitrile], for which the IC50 is greater than 10000 nM in assay [1], 5000 to 10000 nM in assay [2], greater than 100 nM in assay [4] and 5000 to 10000 nM in assay [5].
As for `C[C@@H]1CN(c2n[nH]c3ncc(-c4cnn(C)c4)cc23)C(=O)[C@]1(C#N)C1CC1` [Example 274, (3R,4S)-3-cyclopropyl-4-methyl-1-(5-(1-methyl-1H-pyrazol-4-yl)-1H-pyrazolo[3,4-b]pyridin-3-yl)-2-oxopyrrolidine-3-carbonitrile], the IC50 in assay [1] was 100 to 1000 nM; in assay [2], greater than 10000 nM; in assay [4], greater than 100 nM; in assay [5], greater than 10000 nM.
`C[C@@H]1CN(c2nn(-c3cccc(=O)n3C)c3cnccc23)C(=O)[C@]1(C#N)C1CC1` [Example 279, (3R,4S)-3-cyclopropyl-4-methyl-1-(1-(1-methyl-6-oxo-1,6-dihydropyridin-2-yl)-1H-pyrazolo[3,4-c]pyridin-3-yl)-2-oxopyrrolidine-3-carbonitrile]: the IC50 was greater than 10000 nM in assay [1], greater than 10000 nM in assay [2], greater than 100 nM in assay [4] and greater than 10000 nM in assay [5].
With `Cc1ccc(-n2nc(N3C[C@@H](C)[C@@](C#N)(C4CC4)C3=O)c3ccncc32)cn1` [Example 282, (3R,4S)-3-cyclopropyl-4-methyl-1-(1-(6-methylpyridin-3-yl)-1H-pyrazolo[3,4-c]pyridin-3-yl)-2-oxopyrrolidine-3-carbonitrile], the IC50 is 1000 to 5000 nM in assay [1], 1000 to 5000 nM in assay [2], 20 to 50 nM in assay [4] and 1000 to 5000 nM in assay [5].
As to `C[C@@H]1CN(c2ccc3ncc(-c4cnn(C)c4)cn23)C(=O)[C@]1(C#N)C1CC1` [Example 283, (3R,4S)-3-cyclopropyl-4-methyl-1-(3-(1-methyl-1H-pyrazol-4-yl)pyrrolo[1,2-a]pyrimidin-6-yl)-2-oxopyrrolidine-3-carbonitrile], the concentration for half-maximal inhibition (IC50) was greater than 10000 nM in assay [1], greater than 10000 nM in assay [2], greater than 100 nM in assay [4] and greater than 10000 nM in assay [5].
On to `C[C@@H]1CN(c2cc(-c3cnn(C)c3)cc3ncnn23)C(=O)[C@]1(C#N)C1CC1` [Example 285, (3R,4S)-3-cyclopropyl-4-methyl-1-(7-(1-methyl-1H-pyrazol-4-yl)-[1,2,4]triazolo[1,5-a]pyridin-5-yl)-2-oxopyrrolidine-3-carbonitrile], for which the IC50 in assay [1] is greater than 10000 nM; in assay [2], greater than 10000 nM; in assay [4] it was greater than 100 nM; in assay [5] it was greater than 10000 nM.
Take `C[C@@H]1CN(c2ncnc3cc(-c4cnn(C)c4)sc23)C(=O)[C@]1(C#N)C1CC1` [Example 286, (3R,4S)-3-cyclopropyl-4-methyl-1-(6-(1-methyl-1H-pyrazol-4-yl)thieno[3,2-d]pyrimidin-4-yl)-2-oxopyrrolidine-3-carbonitrile]: the IC50 in assay [1] is 1000 to 5000 nM; in assay [2], greater than 10000 nM; in assay [4], greater than 100 nM; in assay [5], greater than 10000 nM.
Consider `C[C@@H]1CN(c2cc(-c3cnn(C)c3)cc3nccn23)C(=O)[C@]1(C#N)C1CC1` [Example 287, (3R,4S)-3-cyclopropyl-4-methyl-1-(7-(1-methyl-1H-pyrazol-4-yl)imidazo[1,2-a]pyridin-5-yl)-2-oxopyrrolidine-3-carbonitrile], for which the IC50 in assay [1] was greater than 10000 nM; in assay [2], greater than 10000 nM; in assay [4], greater than 100 nM; in assay [5], greater than 10000 nM.
In the case of `C[C@@H]1CN(c2ccnn3cc(-n4ccccc4=O)cc23)C(=O)[C@]1(C#N)C1CC1` [Example 340, (3R,4S)-3-cyclopropyl-4-methyl-2-oxo-1-(6-(2-oxopyridin-1(2H)-yl)pyrrolo[1,2-b]pyridazin-4-yl)pyrrolidine-3-carbonitrile], the IC50 in assay [1] was greater than 10000 nM; in assay [2] it was greater than 10000 nM; in assay [4] it was greater than 100 nM; in assay [5] it was 1000 to 5000 nM.
For the compound `Cc1ncn(-c2cc3c(N4C[C@@H](C)[C@@](C#N)(C5CC5)C4=O)ccnn3c2)n1` [Example 342, (3R,4S)-3-cyclopropyl-4-methyl-1-(6-(3-methyl-1H-1,2,4-triazol-1-yl)pyrrolo[1,2-b]pyridazin-4-yl)-2-oxopyrrolidine-3-carbonitrile], the half-inhibitory concentration (IC50) is 1000 to 5000 nM in assay [1], 1000 to 5000 nM in assay [2], greater than 100 nM in assay [4] and 1000 to 5000 nM in assay [5].
On to `Cc1cnn(-c2cc3c(N4C[C@@H](C)[C@@](C#N)(C5CC5)C4=O)ccnn3c2)n1` [Example 343, (3R,4S)-3-cyclopropyl-4-methyl-1-(6-(4-methyl-2H-1,2,3-triazol-2-yl)pyrrolo[1,2-b]pyridazin-4-yl)-2-oxopyrrolidine-3-carbonitrile], for which the IC50 was greater than 10000 nM in assay [1], greater than 10000 nM in assay [2], greater than 100 nM in assay [4] and greater than 10000 nM in assay [5].
For `Cc1cnn(-c2cc3nccc(N4C[C@@H](C)[C@@](C#N)(C5CC5)C4=O)c3o2)c1` [Example 345, (3R,4S)-3-cyclopropyl-4-methyl-1-(2-(4-methyl-1H-pyrazol-1-yl)furo[3,2-b]pyridin-7-yl)-2-oxopyrrolidine-3-carbonitrile], the IC50 fell in the range of 1000 to 5000 nM in assay [1], 1000 to 5000 nM in assay [2], 20 to 50 nM in assay [4] and 1000 to 5000 nM in assay [5].
Take `C[C@@H]1CN(c2cc(-c3cnn(C)c3)cc3nscc23)C(=O)[C@]1(C#N)C1CC1` [Example 351, (3R,4S)-3-cyclopropyl-4-methyl-1-(6-(1-methyl-1H-pyrazol-4-yl)benzo[c]isothiazol-4-yl)-2-oxopyrrolidine-3-carbonitrile]: the IC50 lay within 100 to 1000 nM in assay [1], 100 to 1000 nM in assay [2], 20 to 50 nM in assay [4] and 100 to 1000 nM in assay [5].

The term IC50 denotes the concentration that inhibits the measured activity by half.
